# Assay results reported in paper PMC9186362, “Design and biological evaluation of substituted 5,7-dihydro-6H-indolo[2,3-c]quinolin-6-one as novel selective Haspin inhibitors” (Journal of Enzyme Inhibition and Medicinal Chemistry, 2022).
# Key:
# Test in all cases: SelectScreen ZLYTE
# Format in all cases: biochemical
# JAK2 = biological target: T1, JAK2 (Homo sapiens, UniProt O60674); settings: ATP Km, read-out: Percentage of inhibition
# T1 construct: purchased Life Technologies (SelectScreen Whole Panel)
# In short: (§1)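 In a large-scale selectivity screen, each kinase was exposed to the inhibitor at 1 μM, and the read-out was expressed as percentage inhibition.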
# GSK3B (GSK3 beta) = biological target: T2, GSK3B (GSK3 beta) (Homo sapiens, UniProt P49841); settings: ATP Km, read-out: Percentage of inhibition
# T2 construct: purchased Life Technologies (SelectScreen service)
# In short: as §1
# AMPK A2/B1/G1 = AMPK A2/B1/G1 (Homo sapiens, UniProt P54646); settings: ATP Km, read-out: Percentage of inhibition
# In short: as §1
# MAP2K6 (MKK6) = biological target: T3, MAP2K6 (MKK6) (Homo sapiens, UniProt P52564); settings: ATP 100 µM, read-out: Percentage of inhibition
# T3 construct: purchased Life Technologies (SelectScreen Whole Panel service)
# In short: as §1
# NIM1K = biological target: T4, NIM1K (Homo sapiens, UniProt Q8IY84); settings: ATP Km, read-out: Percentage of inhibition
# T4 construct: purchased Life Technologies (SelectScreen)
# In short: as §1
# MARK2 = biological target: T5, MARK2 (Homo sapiens, UniProt Q7KZI7); settings: ATP Km, read-out: Percentage of inhibition
# T5 construct: purchased Life Technologies (SelectScreen Whole Panel service)
# T5 sequence (Q7KZI7 whole entry): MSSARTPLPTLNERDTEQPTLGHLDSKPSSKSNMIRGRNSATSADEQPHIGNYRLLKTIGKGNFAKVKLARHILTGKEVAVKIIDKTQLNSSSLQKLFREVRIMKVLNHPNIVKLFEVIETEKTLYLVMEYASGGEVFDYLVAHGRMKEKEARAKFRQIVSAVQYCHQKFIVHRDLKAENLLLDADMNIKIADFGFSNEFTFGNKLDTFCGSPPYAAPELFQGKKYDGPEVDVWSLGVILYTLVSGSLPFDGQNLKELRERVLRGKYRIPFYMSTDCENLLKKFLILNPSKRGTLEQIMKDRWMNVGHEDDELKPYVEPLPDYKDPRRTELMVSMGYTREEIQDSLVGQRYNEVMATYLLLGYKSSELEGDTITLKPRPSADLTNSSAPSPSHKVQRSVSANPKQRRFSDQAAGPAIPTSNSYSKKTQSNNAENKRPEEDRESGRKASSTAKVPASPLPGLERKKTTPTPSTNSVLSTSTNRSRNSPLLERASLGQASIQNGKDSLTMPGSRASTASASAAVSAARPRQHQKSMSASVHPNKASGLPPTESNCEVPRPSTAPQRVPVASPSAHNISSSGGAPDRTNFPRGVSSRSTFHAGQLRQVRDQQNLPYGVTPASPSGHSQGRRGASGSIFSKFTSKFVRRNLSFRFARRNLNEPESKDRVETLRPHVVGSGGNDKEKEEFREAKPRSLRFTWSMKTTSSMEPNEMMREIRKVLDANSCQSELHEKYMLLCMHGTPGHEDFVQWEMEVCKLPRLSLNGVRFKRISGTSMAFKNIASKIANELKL
# In short: as §1
# PRKCB2 (PKC beta II) = PRKCB2 (PKC beta II) (Homo sapiens, UniProt P05771); settings: ATP Km, read-out: Percentage of inhibition
# Sequence of PRKCB2 (PKC beta II) (P05771 1-673 isoform P05771-2): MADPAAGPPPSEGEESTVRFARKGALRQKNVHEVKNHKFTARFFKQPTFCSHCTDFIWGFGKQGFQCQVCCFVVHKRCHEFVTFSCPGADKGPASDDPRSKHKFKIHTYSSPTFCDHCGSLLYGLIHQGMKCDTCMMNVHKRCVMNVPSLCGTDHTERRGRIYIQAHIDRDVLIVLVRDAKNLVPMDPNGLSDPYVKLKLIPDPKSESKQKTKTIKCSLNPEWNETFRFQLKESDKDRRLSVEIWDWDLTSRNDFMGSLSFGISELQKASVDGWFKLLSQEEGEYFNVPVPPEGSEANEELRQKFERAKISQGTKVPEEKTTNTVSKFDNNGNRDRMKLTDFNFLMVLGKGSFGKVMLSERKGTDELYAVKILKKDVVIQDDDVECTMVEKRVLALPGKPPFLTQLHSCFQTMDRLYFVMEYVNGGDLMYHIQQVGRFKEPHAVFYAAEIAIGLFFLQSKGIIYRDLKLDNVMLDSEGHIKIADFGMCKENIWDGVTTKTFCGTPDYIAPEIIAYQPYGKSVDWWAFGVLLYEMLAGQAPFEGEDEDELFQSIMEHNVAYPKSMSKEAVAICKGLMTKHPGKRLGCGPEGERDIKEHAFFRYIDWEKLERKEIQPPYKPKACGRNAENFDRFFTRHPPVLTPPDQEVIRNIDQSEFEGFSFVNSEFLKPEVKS
# In short: as §1
# NEK4 = biological target: T6, NEK4 (Homo sapiens, UniProt P51957); settings: ATP Km, read-out: Percentage of inhibition
# T6 construct: purchased Life Technologies
# In short: as §1
# IKBKE (IKK epsilon) = biological target: T7, IKBKE (IKK epsilon) (Homo sapiens, UniProt Q14164); settings: ATP Km, read-out: Percentage of inhibition
# T7 construct: purchased Life Technologies (SelectScreen Whole Panel service)
# T7 sequence (Q14164 whole entry): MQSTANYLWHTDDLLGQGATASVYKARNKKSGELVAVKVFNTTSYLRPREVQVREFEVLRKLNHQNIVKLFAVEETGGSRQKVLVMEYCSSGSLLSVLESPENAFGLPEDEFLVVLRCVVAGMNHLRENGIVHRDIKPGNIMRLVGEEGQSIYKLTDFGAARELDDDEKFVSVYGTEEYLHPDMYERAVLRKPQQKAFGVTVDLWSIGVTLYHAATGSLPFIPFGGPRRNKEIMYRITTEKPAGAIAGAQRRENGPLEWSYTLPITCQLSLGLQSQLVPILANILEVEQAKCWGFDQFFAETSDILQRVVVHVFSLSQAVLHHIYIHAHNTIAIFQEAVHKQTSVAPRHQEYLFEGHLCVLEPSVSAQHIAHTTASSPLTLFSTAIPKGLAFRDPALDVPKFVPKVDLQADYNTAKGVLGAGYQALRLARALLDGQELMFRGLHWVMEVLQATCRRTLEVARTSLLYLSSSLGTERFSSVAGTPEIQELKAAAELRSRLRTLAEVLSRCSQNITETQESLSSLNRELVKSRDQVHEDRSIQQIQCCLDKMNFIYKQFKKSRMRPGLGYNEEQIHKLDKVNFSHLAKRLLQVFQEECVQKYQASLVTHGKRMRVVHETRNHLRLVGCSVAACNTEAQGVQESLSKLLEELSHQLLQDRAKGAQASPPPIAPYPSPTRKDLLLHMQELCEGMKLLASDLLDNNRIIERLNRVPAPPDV
# In short: as §1
# ACVR1B (ALK4) = biological target: T8, ACVR1B (ALK4) (Homo sapiens, UniProt P36896); settings: ATP Km, read-out: Percentage of inhibition
# T8 construct: purchased Life Technologies (SelectScreen Whole Panel)
# In short: as §1
# MAPK1 (ERK2) = MAPK1 (ERK2) (Homo sapiens, UniProt P28482); settings: ATP Km, read-out: Percentage of inhibition
# In short: as §1
# LYN A = biological target: T9, LYN A (Homo sapiens, UniProt P07948); settings: ATP Km, read-out: Percentage of inhibition
# T9 construct: purchased Life Technologies (SelectScreen Whole Panel)
# In short: as §1
# AMPK (A1/B2/G3) = AMPK (A1/B2/G3) (Homo sapiens, UniProt Q13131); settings: ATP Km, read-out: Percentage of inhibition
# In short: as §1
# EGFR (ErbB1) G719S = biological target: T10, EGFR (ErbB1) G719S (Homo sapiens, UniProt P00533, G719S); settings: ATP Km, read-out: Percentage of inhibition
# T10 construct: purchased Life Technologies (SelectScreen Whole Panel service)
# In short: as §1
# SRC N1 = SRC N1 (Homo sapiens, UniProt P12931); settings: ATP Km, read-out: Percentage of inhibition
# In short: as §1
# EGFR (ErbB1) = biological target: T11, EGFR (ErbB1) (Homo sapiens, UniProt P00533); settings: ATP Km, read-out: Percentage of inhibition
# T11 construct: purchased Life Technologies
# In short: as §1
# FLT1 (VEGFR1) = biological target: T12, FLT1 (VEGFR1) (Homo sapiens, UniProt P17948); settings: ATP Km, read-out: Percentage of inhibition
# T12 construct: purchased Life Technologies (SelectScreen Whole Panel service)
# In short: as §1
# PHKG1 = biological target: T13, PHKG1 (Homo sapiens, UniProt Q16816); settings: ATP Km, read-out: Percentage of inhibition
# T13 construct: purchased Life Technologies
# In short: as §1
# DYRK4 = biological target: T14, DYRK4 (Homo sapiens, UniProt Q9NR20); settings: ATP Km, read-out: Percentage of inhibition
# T14 construct: purchased Life Technologies
# In short: as §1
# CAMK4 (CaMKIV) = biological target: T15, CAMK4 (CaMKIV) (Homo sapiens, UniProt Q16566); settings: ATP Km, read-out: Percentage of inhibition
# T15 construct: purchased Life Technologies
# In short: as §1
# GRK4 = biological target: T16, GRK4 (Homo sapiens, UniProt P32298); settings: ATP Km, read-out: Percentage of inhibition
# T16 construct: purchased Life Technologies
# In short: as §1
# PDK1 = PDK1 (Homo sapiens, UniProt O15530); settings: ATP 100 µM, read-out: Percentage of inhibition
# In short: as §1
# DCAMKL1 (DCLK1) = biological target: T17, DCAMKL1 (DCLK1) (Homo sapiens, UniProt O15075); settings: ATP Km, read-out: Percentage of inhibition
# T17 construct: purchased Life Technologies
# T17 sequence (O15075 whole entry): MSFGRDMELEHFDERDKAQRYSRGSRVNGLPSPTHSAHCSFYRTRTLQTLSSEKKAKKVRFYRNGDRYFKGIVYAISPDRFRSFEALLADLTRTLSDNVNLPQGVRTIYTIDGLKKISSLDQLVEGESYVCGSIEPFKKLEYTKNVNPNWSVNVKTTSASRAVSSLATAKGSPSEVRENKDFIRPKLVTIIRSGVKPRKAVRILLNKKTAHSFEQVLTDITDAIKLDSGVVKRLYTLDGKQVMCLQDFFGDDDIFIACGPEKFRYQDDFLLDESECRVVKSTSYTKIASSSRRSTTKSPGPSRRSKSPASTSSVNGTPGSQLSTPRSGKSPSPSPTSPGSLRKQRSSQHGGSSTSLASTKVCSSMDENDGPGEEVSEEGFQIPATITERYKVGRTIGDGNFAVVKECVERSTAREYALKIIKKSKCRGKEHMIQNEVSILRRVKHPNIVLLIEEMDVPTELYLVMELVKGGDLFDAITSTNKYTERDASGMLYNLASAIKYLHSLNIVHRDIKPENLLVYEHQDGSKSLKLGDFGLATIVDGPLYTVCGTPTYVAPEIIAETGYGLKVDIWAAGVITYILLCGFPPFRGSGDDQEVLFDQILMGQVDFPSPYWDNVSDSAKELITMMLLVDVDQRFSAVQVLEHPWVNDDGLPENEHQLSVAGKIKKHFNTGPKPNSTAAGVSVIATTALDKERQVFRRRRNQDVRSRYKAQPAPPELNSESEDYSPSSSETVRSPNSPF
# In short: as §1
# AMPK A1/B1/G1 = biological target: T18, AMPK A1/B1/G1 (Homo sapiens, UniProt Q13131); settings: ATP Km, read-out: Percentage of inhibition
# T18 construct: purchased Life Technologies (SelectScreen Whole Panel service)
# In short: as §1
# MAPK12 (p38 gamma) = MAPK12 (p38 gamma) (Homo sapiens, UniProt P53778); settings: ATP Km, read-out: Percentage of inhibition
# In short: as §1
# MAPK7 (ERK5) = biological target: T19, MAPK7 (ERK5) (Homo sapiens, UniProt Q13164); settings: ATP Km, read-out: Percentage of inhibition
# T19 construct: purchased Life Technologies (SelectScreen)
# In short: as §1
# PRKACA (PKA) = biological target: T20, PRKACA (PKA) (Homo sapiens, UniProt P17612); settings: ATP Km, read-out: Percentage of inhibition
# T20 construct: purchased Life Technologies (SelectScreen)
# In short: as §1
# JAK1 = biological target: T21, JAK1 (Homo sapiens, UniProt P23458); settings: ATP Km, read-out: Percentage of inhibition
# T21 construct: purchased Life Technologies (SelectScreen service)
# In short: as §1
# MAP4K5 (KHS1) = biological target: T22, MAP4K5 (KHS1) (Homo sapiens, UniProt Q9Y4K4); settings: ATP Km, read-out: Percentage of inhibition
# T22 construct: purchased Life Technologies (SelectScreen service)
# In short: as §1
# TYRO3 (RSE) = TYRO3 (RSE) (Homo sapiens, UniProt Q06418); settings: ATP Km, read-out: Percentage of inhibition
# In short: as §1
# LCK = LCK (Homo sapiens, UniProt P06239); settings: ATP Km, read-out: Percentage of inhibition
# In short: as §1
# MKNK1 (MNK1) = MKNK1 (MNK1) (Homo sapiens, UniProt Q9BUB5); settings: ATP Km, read-out: Percentage of inhibition
# In short: as §1
# RPS6KB1 (p70S6K) = biological target: T23, RPS6KB1 (p70S6K) (Homo sapiens, UniProt P23443); settings: ATP Km, read-out: Percentage of inhibition
# T23 construct: purchased Life Technologies (SelectScreen Whole Panel service)
# In short: as §1
# PRKD2 (PKD2) = biological target: T24, PRKD2 (PKD2) (Homo sapiens, UniProt Q9BZL6); settings: ATP Km, read-out: Percentage of inhibition
# T24 construct: purchased Life Technologies
# T24 sequence (Q9BZL6 whole entry): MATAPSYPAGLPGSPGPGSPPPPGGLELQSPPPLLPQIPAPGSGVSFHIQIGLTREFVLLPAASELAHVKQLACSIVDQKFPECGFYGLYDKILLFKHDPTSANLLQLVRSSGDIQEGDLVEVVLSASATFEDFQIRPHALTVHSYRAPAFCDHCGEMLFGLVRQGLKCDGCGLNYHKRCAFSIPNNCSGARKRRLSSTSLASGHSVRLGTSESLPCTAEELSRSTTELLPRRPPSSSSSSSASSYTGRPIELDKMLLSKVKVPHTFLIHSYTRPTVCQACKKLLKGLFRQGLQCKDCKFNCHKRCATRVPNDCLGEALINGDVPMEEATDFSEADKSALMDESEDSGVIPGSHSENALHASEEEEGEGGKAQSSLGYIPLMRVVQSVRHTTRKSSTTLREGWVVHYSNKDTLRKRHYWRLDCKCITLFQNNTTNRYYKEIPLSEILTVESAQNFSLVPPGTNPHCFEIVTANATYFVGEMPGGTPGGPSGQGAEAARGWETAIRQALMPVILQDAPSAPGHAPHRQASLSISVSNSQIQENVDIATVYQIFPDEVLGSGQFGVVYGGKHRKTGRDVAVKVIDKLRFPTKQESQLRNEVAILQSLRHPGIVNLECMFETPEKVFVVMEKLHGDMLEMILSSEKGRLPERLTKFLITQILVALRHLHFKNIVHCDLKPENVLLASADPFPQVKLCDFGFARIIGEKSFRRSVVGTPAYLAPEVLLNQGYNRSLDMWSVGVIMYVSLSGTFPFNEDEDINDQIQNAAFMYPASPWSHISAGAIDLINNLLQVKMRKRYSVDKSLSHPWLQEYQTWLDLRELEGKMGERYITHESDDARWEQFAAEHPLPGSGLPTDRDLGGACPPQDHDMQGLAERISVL
# In short: as §1
# CDK17/cyclin Y = CDK17/cyclin Y (Homo sapiens, UniProt Q00537); settings: ATP Km, read-out: Percentage of inhibition
# In short: as §1
# EGFR (ErbB1) C797S = biological target: T25, EGFR (ErbB1) C797S (Homo sapiens, UniProt P00533, C797S); settings: ATP Km, read-out: Percentage of inhibition
# T25 construct: purchased Life Technologies
# T25 sequence (P00533 25-1210 C797S): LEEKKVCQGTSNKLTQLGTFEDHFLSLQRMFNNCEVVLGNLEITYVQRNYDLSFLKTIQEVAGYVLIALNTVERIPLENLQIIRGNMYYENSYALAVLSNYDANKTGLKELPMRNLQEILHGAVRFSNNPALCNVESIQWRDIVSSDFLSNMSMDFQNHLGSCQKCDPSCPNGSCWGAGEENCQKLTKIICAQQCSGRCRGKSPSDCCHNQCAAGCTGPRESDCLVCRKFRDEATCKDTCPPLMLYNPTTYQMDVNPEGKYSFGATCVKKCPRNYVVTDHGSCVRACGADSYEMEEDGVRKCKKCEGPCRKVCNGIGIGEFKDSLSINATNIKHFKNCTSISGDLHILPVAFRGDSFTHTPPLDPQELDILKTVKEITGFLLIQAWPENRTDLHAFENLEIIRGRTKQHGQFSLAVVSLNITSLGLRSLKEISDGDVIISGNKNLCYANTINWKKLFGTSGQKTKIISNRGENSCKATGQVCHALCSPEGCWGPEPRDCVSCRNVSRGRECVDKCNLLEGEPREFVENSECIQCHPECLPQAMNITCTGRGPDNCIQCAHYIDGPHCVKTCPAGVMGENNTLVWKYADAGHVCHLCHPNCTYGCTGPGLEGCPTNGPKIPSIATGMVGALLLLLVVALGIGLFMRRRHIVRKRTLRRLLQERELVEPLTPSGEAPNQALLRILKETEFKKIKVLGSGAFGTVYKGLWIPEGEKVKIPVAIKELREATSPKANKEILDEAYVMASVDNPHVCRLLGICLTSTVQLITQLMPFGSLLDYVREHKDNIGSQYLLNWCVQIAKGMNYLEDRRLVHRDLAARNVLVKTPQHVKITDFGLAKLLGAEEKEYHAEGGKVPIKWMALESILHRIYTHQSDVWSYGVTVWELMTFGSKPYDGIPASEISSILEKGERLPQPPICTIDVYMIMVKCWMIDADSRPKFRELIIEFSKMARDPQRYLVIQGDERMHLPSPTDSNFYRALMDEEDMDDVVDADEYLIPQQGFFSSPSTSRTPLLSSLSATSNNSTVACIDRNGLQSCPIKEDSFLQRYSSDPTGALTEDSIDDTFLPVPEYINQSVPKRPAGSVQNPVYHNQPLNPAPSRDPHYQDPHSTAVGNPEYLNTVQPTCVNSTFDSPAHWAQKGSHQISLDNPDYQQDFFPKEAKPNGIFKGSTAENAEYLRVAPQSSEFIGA
# In short: as §1
# EPHA5 = biological target: T26, EPHA5 (Homo sapiens, UniProt P54756); settings: ATP Km, read-out: Percentage of inhibition
# T26 construct: purchased Life Technologies (SelectScreen Whole Panel service)
# In short: as §1
# MAP2K2 (MEK2) = biological target: T27, MAP2K2 (MEK2) (Homo sapiens, UniProt P36507); settings: ATP 100 µM, read-out: Percentage of inhibition
# T27 construct: purchased Life Technologies
# In short: as §1
structure (smiles),measurement,setting,value
"COc1ccc2[nH]c3c(=O)[nH]c4ccc(O)cc4c3c2c1 [Compound 55, 2-Hydroxy-10-methoxy-5,7-dihydro-6H-indolo[2,3-c]quinolin-6-one]",inhibition at 1 µM,JAK2,54%
same,inhibition at 1 µM,GSK3B (GSK3 beta),81%
same,inhibition at 1 µM,AMPK A2/B1/G1,58%
same,inhibition at 1 µM,MAP2K6 (MKK6),11%
same,inhibition at 1 µM,NIM1K,9%
same,inhibition at 1 µM,MARK2,12%
same,inhibition at 1 µM,PRKCB2 (PKC beta II),13%
same,inhibition at 1 µM,NEK4,28%
same,inhibition at 1 µM,IKBKE (IKK epsilon),17%
same,inhibition at 1 µM,ACVR1B (ALK4),-13%
same,inhibition at 1 µM,MAPK1 (ERK2),19%
same,inhibition at 1 µM,LYN A,49%
same,inhibition at 1 µM,AMPK (A1/B2/G3),67%
same,inhibition at 1 µM,EGFR (ErbB1) G719S,11%
same,inhibition at 1 µM,SRC N1,59%
same,inhibition at 1 µM,EGFR (ErbB1),4%
same,inhibition at 1 µM,FLT1 (VEGFR1),10%
same,inhibition at 1 µM,PHKG1,32%
same,inhibition at 1 µM,DYRK4,42%
same,inhibition at 1 µM,CAMK4 (CaMKIV),41%
same,inhibition at 1 µM,GRK4,42%
same,inhibition at 1 µM,PDK1,15%
same,inhibition at 1 µM,DCAMKL1 (DCLK1),2%
same,inhibition at 1 µM,AMPK A1/B1/G1,47%
same,inhibition at 1 µM,MAPK12 (p38 gamma),19%
same,inhibition at 1 µM,MAPK7 (ERK5),8%
same,inhibition at 1 µM,PRKACA (PKA),8%
same,inhibition at 1 µM,JAK1,23%
same,inhibition at 1 µM,MAP4K5 (KHS1),90%
same,inhibition at 1 µM,TYRO3 (RSE),60%
same,inhibition at 1 µM,LCK,67%
same,inhibition at 1 µM,MKNK1 (MNK1),7%
same,inhibition at 1 µM,RPS6KB1 (p70S6K),12%
same,inhibition at 1 µM,PRKD2 (PKD2),39%
same,inhibition at 1 µM,CDK17/cyclin Y,20%
same,inhibition at 1 µM,EGFR (ErbB1) C797S,4%
same,inhibition at 1 µM,EPHA5,18%
same,inhibition at 1 µM,MAP2K2 (MEK2),87%
